Values of other authors as cited in patent US20240044899A1, “BIOMARKERS FOR FIMEPINOSTAT THERAPY” (Curis, Inc, priority 2021, published 2024).

Test system: MYC-altered DLBCL/HGBL patients
Conditions: Prospective phase 2; DHL; sample size 16; cited from earlier work

## Tisagenlecleucel
  CRR: 25%
  ORR: 50%/
